In the experiment the target is T1, human aquaporin 9 (Homo sapiens, UniProt O43315).
T1 construct: expressed in transfected cells; host or cells: Human AQP9 cell line with tetracycline added to the medium
T1 sequence (O43315 1-295): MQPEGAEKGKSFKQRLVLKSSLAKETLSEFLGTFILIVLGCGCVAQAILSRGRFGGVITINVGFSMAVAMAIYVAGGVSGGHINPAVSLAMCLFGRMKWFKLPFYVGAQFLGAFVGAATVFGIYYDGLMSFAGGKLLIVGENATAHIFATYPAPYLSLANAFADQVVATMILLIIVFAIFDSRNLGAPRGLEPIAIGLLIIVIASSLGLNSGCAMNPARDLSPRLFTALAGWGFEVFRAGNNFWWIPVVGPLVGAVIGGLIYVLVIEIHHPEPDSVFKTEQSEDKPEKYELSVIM
As to the kind of experiment: Calcein quenching fluostar assay. The class given is cell-based. The following applies: inhibition of human aquaporin 9; Human AQP9 cell line, tetracyclin-induced; 25° C. How it is done:
Calcein Quenching Fluostar Assay
A calcein quenching fluostar assay was performed in order to investigate the biological activity of the newly synthesized examples 1 to 57. This type of assay is disclosed in J. Biol. Chem., 2011, 286, 44319-44325 and Am. J. Physiol. Renal Physiol. (2010), 298, F224-230.
1) Two days prior to commencement of the assay, seed 10,000 cells/well of 96 well black clear bottom plate (Greiner Poly-lysin plate). A 1:1 mix of Dulbecco's Modified Eagle's Medium:Nutrient Mixture F-12 (DMEM: F12) was obtained from Gibco. Tetracycline stock of 5 mg/ml in 96% ethanol is used. Medium:DMEM/F12/10% Donor Bovine Serum, Human AQP9 cell line+1:270,000 tetracyclin, mouse AQP9 cell line+1:2,700,000 tetracycline.
2) Day of assay: Flick/slam off the medium and add 50 μl/well of loading solution: 5 ml DMEM/F12/10% Donor Bovine Serum, 25 μl Calcein AM—from freshly dissolved aliquot in 50 μl DMSO (VWR #734-1434), and 100 μl Probenecid.
3) Incubate the well for 90 minutes at 37° C.
4) Perform one wash with 75 μl wash buffer.
5) Add 75 μl of an example compound prepared in wash buffer per well.
Example compounds are prepared in 500 μl U bottom PP plates (NUNC). […] Substance in DMSO are added to row A; 180 μl of wash buffer+1% DMSO are added to rows B-H. 90 μl from row A are transferred and mixed with all other wells (up to row G) to make a 3-fold dilution series.
6) Assay in FLUOstar Optima at 25° C. Settings buffer addition at 135 μl seconds, add 75 μl/well, record time course for 30 seconds, add sucrose buffer 3.6 seconds into recording.
7) Normalization to initial in Excel.
8) Fit to “exponential decay” function in GraphPad Prism 5.0, then arrange half live shrinking values according to wells and fit dose-response curves.
For the compound `Cn1c(SCC(=O)Nc2nnc(-c3ccc(F)cc3)s2)nnc1-c1ccc(F)cc1` [Example 1, N-[5-(4-fluorophenyl)-1,3,4-thiadizole-2-yl]-2-{[5-(4-fluorophenyl)-4-methyl-4H-1,2,4-triazole-3-yl]sulfanyl}acetamide], the IC50 was 0.393 µM.

Regarding `Cn1c(SCC(=O)Nc2nnc(-c3ccccc3F)s2)nnc1-c1ccncc1` [Example 2, N-[5-(2-fluorophenyl)-1,3,4-thiadiazol-2-yl]-2-{[4-methyl-5-(pyridin-4-yl)-4H-1,2,4-triazol-3-yl]sulfanyl}acetamide], the IC50 is 0.193 µM.

As to `Cn1c(SCC(=O)Nc2nnc(-c3cccc(F)c3)s2)nnc1-c1ccc(F)cc1` [Example 3, N-[5-(3-fluorophenyl)-1,3,4-thiadizole-2-yl]-2-{[5-(4-fluorophenyl)-4-methyl-4H-1,2,4-triazole-3-yl]sulfanyl}acetamide], the IC50 was 1.29 µM.

With `COc1ccccc1-c1nnc(NC(=O)CSc2nnc(-c3ccc(F)cc3)n2C)s1` [Example 4, 2-{[5-(4-Fluorophenyl)-4-methyl-4H-1,2,4-triazole-3-yl]sulfanyl}-N-[5-(2-methoxyphenyl)-1,3,4-thiadizole-2-yl]-acetamide], the IC50 was 4.74 µM.

As for `CCn1c(SCC(=O)Nc2nnc(-c3cccc(OC)c3)s2)nnc1-c1ccc(F)cc1` [Example 5, 2-{[4-ethyl-5-(4-fluorophenyl)-4H-1,2,4-triazol-3-yl]sulfanyl}-N-[5-(3-methoxyphenyl)-1,3,4-thiadiazol-2-yl]acetamide], the IC50 is 4.83 µM.

`COc1ccc(-c2nnc(NC(=O)CSc3nnc(-c4ccc(F)cc4)n3C)s2)cc1` [Example 6, 2-{[5-(4-Fluorophenyl)-4-methyl-4H-1,2,4-triazole-3-yl]sulfanyl}-N-[5-(4-methoxyphenyl)-1,3,4-thiadizole-2-yl]-acetamide]: the IC50 is 0.253 µM.

For the compound `Cn1c(SCC(=O)Nc2nnc(-c3ccccc3F)s2)nnc1-c1ccc(Cl)cc1` [Example 7, 2-{[5-(4-Chlorophenyl)-4-methyl-4H-1,2,4-triazole-3-yl]sulfanyl}-N-[5-(2-fluorophenyl)-1,3,4-thiadizole-2-yl]-acetamide], the IC50 is 0.26 µM.

In the case of `Cn1c(SCC(=O)Nc2nnc(-c3ccccc3F)s2)nnc1-c1ccc(F)cc1` [Example 8, 2-{[5-(4-Fluorophenyl)-4-methyl-4H-1,2,4-triazole-3-yl]sulfanyl}-N-[5-(2-fluorophenyl)-1,3,4-thiadizole-2-yl]-acetamide], the IC50 was 0.157 µM.

With `Cn1c(SCC(=O)Nc2nnc(-c3ccc(F)cc3)s2)nnc1-c1ccncc1` [Example 9, N-[5-(4-fluorophenyl)-1,3,4-thiadiazol-2-yl]-2-{[4-methyl-5-(pyridin-4-yl)-4H-1,2,4-triazol-3-yl]sulfanyl}acetamide], the IC50 was 0.112 µM.

On to `COc1ccc(-c2nnc(NC(=O)CSc3nnc(-c4ccncc4)n3C)s2)cc1` [Example 10, N-[5-(4-methoxyphenyl)-1,3,4-thiadiazol-2-yl]-2-{[4-methyl-5-(pyridin-4-yl)-4H-1,2,4-triazol-3-yl]sulfanyl}acetamide], for which the IC50 is 0.037 µM.

As for `CCn1c(SCC(=O)Nc2nnc(-c3ccc(OC)cc3)s2)nnc1-c1ccc(F)cc1` [Example 11, 2-{[4-Ethyl-5-(4-fluorophenyl)-4H-1,2,4-triazol-3-yl]sulfanyl}-N-[5-(4-methoxyphenyl)-1,3,4-thiadiazol-2-yl]acetamide], the IC50 is 0.04 µM.

Regarding `CCn1c(SCC(=O)Nc2nnc(-c3ccc(F)cc3)s2)nnc1-c1ccc(F)cc1` [Example 12, 2-{[4-Ethyl-5-(4-fluorophenyl)-4H-1,2,4-triazol-3-yl]sulfanyl}-N-[5-(4-fluorophenyl)-1,3,4-thiadiazol-2-yl]acetamide], the IC50 was 0.056 µM.

On to `CCn1c(SCC(=O)Nc2nnc(-c3ccc(OC)cc3)s2)nnc1-c1ccccc1C` [Example 13, 2-{[4-Ethyl-5-(2-methylphenyl)-4H-1,2,4-triazol-3-yl]sulfanyl}-N-[5-(4-methoxyphenyl)-1,3,4-thiadiazol-2-yl]acetamide], for which the IC50 was 0.323 µM.

Consider `CCn1c(SCC(=O)Nc2nnc(-c3ccc(OC)cc3)s2)nnc1-c1cccc(C)c1` [Example 14, 2-{[4-Ethyl-5-(3-methylphenyl)-4H-1,2,4-triazol-3-yl]sulfanyl}-N-[5-(4-methoxyphenyl)-1,3,4-thiadiazol-2-yl]acetamide], for which the IC50 is 0.172 µM.

As for `CCn1c(SCC(=O)Nc2nnc(-c3ccc(OC)cc3)s2)nnc1-c1ccc(C)cc1` [Example 15, 2-{[4-Ethyl-5-(4-methylphenyl)-4H-1,2,4-triazol-3-yl]sulfanyl}-N-[5-(4-methoxyphenyl)-1,3,4-thiadiazol-2-yl]acetamide], the IC50 is 0.262 µM.

On to `CCn1c(SCC(=O)Nc2nnc(-c3ccc(OC)cc3)s2)nnc1-c1ccc(OC)cc1` [Example 16, 2-{[4-Ethyl-5-(4-methoxyphenyl)-4H-1,2,4-triazol-3-yl]sulfanyl}-N-[5-(4-methoxyphenyl)-1,3,4-thiadiazol-2-yl]acetamide], for which the IC50 is 0.269 µM.

For the compound `CCn1c(SCC(=O)Nc2nnc(-c3ccc(OC)cc3)s2)nnc1-c1ccccc1F` [Example 17, 2-{[4-Ethyl-5-(2-fluorophenyl)-4H-1,2,4-triazol-3-yl]sulfanyl}-N-[5-(4-methoxyphenyl)-1,3,4-thiadiazol-2-yl]acetamide], the IC50 was 0.139 µM.

Regarding `CCn1c(SCC(=O)Nc2nnc(-c3ccc(OC)cc3)s2)nnc1-c1cccc(F)c1` [Example 18, 2-{[4-Ethyl-5-(3-fluorophenyl)-1,2,4-triazol-3-yl]sulfanyl}-N-[5-(4-methoxyphenyl)-1,3,4-thiadiazol-2-yl]acetamide], the IC50 is 0.135 µM.

On to `CCn1c(SCC(=O)Nc2nnc(-c3ccc(OC)cc3)s2)nnc1-c1ccccc1Cl` [Example 19, 2-{[5-(2-Chlorophenyl)-4-ethyl-4H-1,2,4-triazol-3-yl]sulfanyl}-N-[5-(4-methoxyphenyl)-1,3,4-thiadiazol-2-yl]acetamide], for which the IC50 is 0.233 µM.

For `CCn1c(SCC(=O)Nc2nnc(-c3ccc(OC)cc3)s2)nnc1-c1cccnc1` [Example 20, 2-{[4-Ethyl-5-(pyridin-3-yl)-4H-1,2,4-triazol-3-yl]sulfanyl}-N-[5-(4-methoxyphenyl)-1,3,4-thiadiazol-2-yl]acetamide], the IC50 is 0.056 µM.

Consider `CCn1c(SCC(=O)Nc2nnc(-c3ccc(OC)cc3)s2)nnc1-c1ccncc1` [Example 21, 2-{[4-Ethyl-5-(pyridin-4-yl)-4H-1,2,4-triazol-3-yl]sulfanyl}-N-[5-(4-methoxyphenyl)-1,3,4-thiadiazol-2-yl]acetamide], for which the IC50 was 0.068 µM.

For `CCn1c(SCC(=O)Nc2nnc(-c3ccc(OC)cc3)s2)nnc1-c1cccc(OC)c1` [Example 22, 2-{[4-Ethyl-5-(3-methoxyphenyl)-4H-1,2,4-triazol-3-yl]sulfanyl}-N-[5-(4-methoxyphenyl)-1,3,4-thiadiazol-2-yl]acetamide], the IC50 is 0.16 µM.

As for `CCn1c(SCC(=O)Nc2nnc(-c3ccc(F)cc3)s2)nnc1-c1cccc(C)c1` [Example 23], the IC50 is 0.372 µM.

As for `CCn1c(SCC(=O)Nc2nnc(-c3ccc(F)cc3)s2)nnc1-c1ccc(C)cc1` [Example 24, 2-{[4-Ethyl-5-(4-methylphenyl)-4H-1,2,4-triazol-3-yl]sulfanyl}-N-[5-(4-fluorophenyl)-1,3,4-thiadiazol-2-yl]acetamide], the IC50 was 0.427 µM.

`CCn1c(SCC(=O)Nc2nnc(-c3ccc(F)cc3)s2)nnc1-c1cccc(OC)c1` [Example 25, 2-{[4-Ethyl-5-(3-methoxyphenyl)-4H-1,2,4-triazol-3-yl]sulfanyl}-N-[5-(4-fluorohenyl)-1,3,4-thiadiazol-2-yl]acetamide]: the IC50 was 0.375 µM.

For the compound `CCn1c(SCC(=O)Nc2nnc(-c3ccc(F)cc3)s2)nnc1-c1ccc(OC)cc1` [Example 26, 2-{[4-Ethyl-5-(4-methoxyphenyl)-4H-1,2,4-triazol-3-yl]sulfanyl}-N-[5-(4-fluorophenyl)-1,3,4-thiadiazol-2-yl]acetamide], the IC50 was 0.477 µM.

For the compound `CCn1c(SCC(=O)Nc2nnc(-c3ccc(F)cc3)s2)nnc1-c1ccccc1F` [Example 27, 2-{[4-Ethyl-5-(2-fluorophenyl)-4H-1,2,4-triazol-3-yl]sulfanyl}-N-[5-(4-fluorophenyl)-1,3,4-thiadiazol-2-yl]acetamide], the IC50 is 0.366 µM.

`CCn1c(SCC(=O)Nc2nnc(-c3ccc(F)cc3)s2)nnc1-c1cccc(F)c1` [Example 28]: the IC50 is 0.2 µM.
